Measurements taken from US12466781B2, “Thyromimetics” (Autobahn Therapeutics, Inc., priority 2019, dated 2025).

Experiments:
[1] = Tissue distribution studies (tissue concentrations by LC-MS/MS); assay type: in vivo, male C57Bl/6 mice; conditions: for AUC(4-hr) Heart / AUC(4-hr) Liver: mice, targeted dose 0.100 mg/kg; for brain levels of parent acid Compound 15: PO dosing (0.1 mg/kg) of the amide prodrug, compared to dosing Compound 15 itself, FIG. 1
Procedure: For tissue concentration studies in male C57Bl/6 mice, test compounds are formulated as NMP/solutol/PBS solution, at a concentration of 0.05 mg/mL and dosed at 2 mL/kg with the targeted dose of 0.100 mg/kg via SC injection or oral dosing. […] The pharmacokinetic parameters are determined by non-compartmental methods using WinNonlin. Area under the drug curves (AUC) values are determined by trapezoidal approximation; tissue-to-tissue ratios are determined by comparing AUC values.

TRα = molecular target: T1, TRα (Homo sapiens, UniProt P10827); assay: Thyroid-hormone reporter-gene assay (TRα-Gal4 hybrid, luciferase, HEK293); assay type: cell-based; conditions: Table 3; read-out: EC50-TRα
T1 construct: expressed in transfected cells; host or cells: HEK293
T1 sequence (P10827 163-410 isoform P10827-2 limits assumed): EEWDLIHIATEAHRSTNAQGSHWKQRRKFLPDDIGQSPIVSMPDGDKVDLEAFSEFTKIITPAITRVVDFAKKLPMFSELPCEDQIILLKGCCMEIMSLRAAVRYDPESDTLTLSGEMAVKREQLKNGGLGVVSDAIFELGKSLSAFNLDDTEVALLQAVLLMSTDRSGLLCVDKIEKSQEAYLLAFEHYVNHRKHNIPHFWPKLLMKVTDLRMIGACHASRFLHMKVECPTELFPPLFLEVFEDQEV
Procedure: (§1) Compounds were tested for thyroid-hormone receptor activity using TR reporter-gene assays. Reporter cells used in the assays express a TR-receptor hybrid (either TRα or TRβ) in which the native N-terminal DNA binding domain (DBD) has been replaced with that of the yeast Gal4 DBD. The reporter gene, firefly luciferase, is functionally linked to the Gal4 upstream activation sequence (UAS). Both cell lines were derived from human embryonic kidney (HEK293).
(§2) Step 1: A suspension of reporter cells was prepared in cell recovery medium containing 10% charcoal-stripped FBS, and dispensed into assay plates. The plates were pre-incubated for 6 hours in a cell culture incubator (37° C./5% CO2/85% humidity).
(§3) These intermediate stocks were subsequently diluted directly into compound screening medium containing 10% charcoal-stripped FBS to generate “2×-concentration” treatment media (containing 0.2, 0.4 or 0.8% DMSO).
(§4) Step 3: At the end of the pre-incubation period, culture media were discarded from the assay plates, and all wells received 100 μl of compound screening medium. 100 μl of each of the previously prepared “2×-concentration” treatment media were dispensed into duplicate assay wells, thereby achieving the desired final treatment concentrations. The final concentration of DMSO in all assay wells was 0.1, 0.2 or 0.4%. Assay plates were incubated for 24 hr in a cell culture incubator (37° C./5% CO2/85% humidity).
(§5) Step 4: At the 24 h assay endpoint, treatment media were discarded and 100 μl/well of luciferase detection reagent was added. Relative luminometer units (RLUs) were quantified from each assay well.

TRβ = molecular target: T2, TRβ (Homo sapiens, UniProt P10828); assay: Thyroid-hormone reporter-gene assay (TRβ-Gal4 hybrid, luciferase, HEK293); assay type: cell-based; conditions: Table 3
T2 construct: expressed in transfected cells; host or cells: HEK293
T2 sequence (P10828 217-461 limits assumed): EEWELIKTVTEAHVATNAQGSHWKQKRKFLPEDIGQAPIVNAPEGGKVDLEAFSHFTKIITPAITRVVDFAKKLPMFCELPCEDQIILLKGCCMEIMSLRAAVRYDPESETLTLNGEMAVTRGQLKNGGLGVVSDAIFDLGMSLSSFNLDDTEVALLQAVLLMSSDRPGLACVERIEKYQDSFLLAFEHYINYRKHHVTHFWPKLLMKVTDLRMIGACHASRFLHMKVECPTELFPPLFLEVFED
Procedure: as §1, §2, §3, §4, §5

Row | SMILES | AUC(4-hr) Heart [1] | AUC(4-hr) Liver [1] | brain levels of parent acid Compound 15 [1] | other results
1 | CC(C)c1c(O)ccc(Cc2c(Cl)cc(OCC(=O)O)cc2Cl)c1F [Compound 15, 2-(3,5-dichloro-4-(2-fluoro-4-hydroxy-3-isopropylbenzyl)phenoxy)acetic acid] | 25.8 ng-hr/g of tissue | 580 ng-hr/g of tissue | – | –
2 | CNC(=O)COc1cc(Cl)c(Cc2ccc(O)c(C(C)C)c2F)c(Cl)c1 [Compound 16, 2-(3,5-dichloro-4-(2-fluoro-4-hydroxy-3-isopropylbenzyl)phenoxy)-N-methylacetamide] | – | – | dramatic increase in brain concentration of the parent acid | –
3 | CC(C)c1c(O)ccc(Cc2c(Cl)cc(OCC(=O)N(C)C)cc2Cl)c1F [Compound 17, 2-(3,5-dichloro-4-(2-fluoro-4-hydroxy-3-isopropylbenzyl)phenoxy)-N,N-dimethylacetamide] | – | – | increase in the brain concentration of the parent acid | –
4 | CC(C)c1cc(Cc2c(Cl)cc(OCC(=O)O)c(F)c2Cl)ccc1O [Compound 62, 2-(3,5-dichloro-2-fluoro-4-(4-hydroxy-3-isopropylbenzyl)phenoxy)acetic acid] | 24.4 ng-hr/g of tissue | 550 ng-hr/g of tissue | – | –
5 | CC(C)c1cc(Cc2c(Cl)cc(OCC(=O)O)cc2Cl)ccc1O [JD-21, reference compound] | – | – | – | EC50 (TRα): 190 nM; EC50 (TRβ; read-out: EC50-TRβ): 79 nM; T3-SI (TRβ; selectivity index): 14
